Data as given in patent US20210330693A1, “HEPARANASE INHIBITORS AND THEIR USE AS ANTI-CANCER COMPOUNDS” (Wayne State University, priority 2018, published 2021).

Experiments:
[1] = system: 4T1 mammary carcinoma cells; assay: 4T1 experimental metastasis assay; type: in vivo, BALB/c mice; details: IVIS imaging day 7; glycopolymer 100 μg/mouse i.p. 20 min before and together with the cells
Procedure: 4T1 Metastasis Assay. Luciferase-labeled 4T1 mammary carcinoma cells (1×10^5/mouse) were injected i.v. (n=6 mice/group) with vehicle alone (control, PBS), with positive control (heparin), or with GlcNS(6S)α((1,4)GlcA glycopolymer (DP=12, 100 μg/mouse) into BALB/c mice (i.p) 20 min prior to cell inoculation and also together with the cells. IVIS bioluminescent imaging was performed on day 7 after cell inoculation. For IVIS imaging, mice were injected intraperitoneally with D-luciferin substrate at 150 mg/kg and anesthetized with continuous exposure to isoflurane (EZAnesthesia, Palmer, Pa.). The experiment was repeated 3 times with similar results.
4T1 Metastasis Assay (Menhofer, et al., PLOS ONE 2014, 9, el 12542). Luciferase-labeled 4T1 breast carcinoma cells (1×10^5/mouse) were injected i.v (n=6 mice/group) with vehicle alone (control, PBS), with positive control (heparin), or with GlcNS(6S)α(1,4)GlcA glycopolymer (DP=12, 100 μg/mouse) into BALB/c mice (i.p) 20 min prior to cell inoculation and also together with the cells. IVIS bioluminescent imaging was performed on day 7 after cell inoculation. […] Light emitted from the bioluminescent cells is detected by the IVIS camera system with images quantified for tumor burden using a log-scale color range set at 5×10^4 to 1×10^7 and measurement of total photon counts per second (PPS) using Living Image software (Xenogen). […]

FGF-2 = biological target: T1, FGF-2 (Homo sapiens, UniProt P09038); assay: Solution-based competitive BLI assay, FGF-2; type: binding; details: competition with immobilized biotin-heparin (18 kDa), 25° C., read-out: dissociation constant (apparent Kd) to FGF-2
T1 construct: purchased R&D Systems
T1 sequence (P09038 143-288, species assumed): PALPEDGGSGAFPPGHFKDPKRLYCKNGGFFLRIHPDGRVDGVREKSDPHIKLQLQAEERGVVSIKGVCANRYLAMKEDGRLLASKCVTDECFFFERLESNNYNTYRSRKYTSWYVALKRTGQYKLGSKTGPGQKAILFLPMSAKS
Procedure: (§1) Biolayer Interferometry Cross-Bioactivity Assay. BLI assays were performed on an Octet Red Instrument (fortéBIO) at 25° C. Immobilization and binding analysis were carried out at 1000 rpm using HBS-EP buffer.
(§2) Biolayer Interferometry (BLI) Assay. BLI assays were performed on an Octet Red Instrument (fortéBIO) at 25° C. Immobilization and binding analysis were carried out at 1000 rpm using HBS-EP buffer [10 mM HEPES, pH 7.4, 150 mM NaCl, 3.0 mM EDTA, and 0.005% (v/v) surfactant tween20]. A solution affinity assay, used to determine affinities of ligands by SPR analysis, was adopted to BLI (Cochran et al., Glycoconjugate J. 2009, 26, 577-587.). In this method, protein is mixed with various concentrations of ligand (glycopolymer C5A or heparin, 18 kDa). Free protein in this equilibrium mixture is tested for binding against immobilized heparin (all proteins are carrier-free and purchased from R&D Systems). Heparin-biotin (Creative PEGworks, 18 kDa, 1 biotin per HP polymer), 5 μg/mL was immobilized on to streptavidin biosensors (fortéBio) for 5 min. Binding experiments were carried out under conditions of mass transport. Binding was fitted to equation 1 (as taught in reference Chai, et al. Anal. Biochem. 2009, 395, 263-264.) using Graphpad Prism. BLI response was used in place of F and ligand (heparin/glycopolymer C5A) concentration was used in place of [metal]. […]

platelet factor-4 (PF4) = biological target: T2, platelet factor-4 (PF4) (Homo sapiens, UniProt P02776); assay: Solution-based competitive BLI assay, PF4; type: binding; details: competition with immobilized biotin-heparin (18 kDa), 25° C., read-out: dissociation constant (apparent Kd) to PF4
T2 construct: purchased R&D Systems
T2 sequence (P02776 32-101): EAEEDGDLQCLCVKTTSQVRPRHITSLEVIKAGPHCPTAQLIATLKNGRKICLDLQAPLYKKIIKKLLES
Procedure: as §1, §2

P-selectin = biological target: T3, P-selectin (Homo sapiens, UniProt P16109); assay: Solution-based competitive BLI assay, P-selectin; type: binding; details: HBS-EP buffer with 2 mM CaCl2, 2 mM MgCl2 and 0.5 mg/mL BSA
T3 construct: purchased R&D Systems
T3 sequence (P16109 42-830): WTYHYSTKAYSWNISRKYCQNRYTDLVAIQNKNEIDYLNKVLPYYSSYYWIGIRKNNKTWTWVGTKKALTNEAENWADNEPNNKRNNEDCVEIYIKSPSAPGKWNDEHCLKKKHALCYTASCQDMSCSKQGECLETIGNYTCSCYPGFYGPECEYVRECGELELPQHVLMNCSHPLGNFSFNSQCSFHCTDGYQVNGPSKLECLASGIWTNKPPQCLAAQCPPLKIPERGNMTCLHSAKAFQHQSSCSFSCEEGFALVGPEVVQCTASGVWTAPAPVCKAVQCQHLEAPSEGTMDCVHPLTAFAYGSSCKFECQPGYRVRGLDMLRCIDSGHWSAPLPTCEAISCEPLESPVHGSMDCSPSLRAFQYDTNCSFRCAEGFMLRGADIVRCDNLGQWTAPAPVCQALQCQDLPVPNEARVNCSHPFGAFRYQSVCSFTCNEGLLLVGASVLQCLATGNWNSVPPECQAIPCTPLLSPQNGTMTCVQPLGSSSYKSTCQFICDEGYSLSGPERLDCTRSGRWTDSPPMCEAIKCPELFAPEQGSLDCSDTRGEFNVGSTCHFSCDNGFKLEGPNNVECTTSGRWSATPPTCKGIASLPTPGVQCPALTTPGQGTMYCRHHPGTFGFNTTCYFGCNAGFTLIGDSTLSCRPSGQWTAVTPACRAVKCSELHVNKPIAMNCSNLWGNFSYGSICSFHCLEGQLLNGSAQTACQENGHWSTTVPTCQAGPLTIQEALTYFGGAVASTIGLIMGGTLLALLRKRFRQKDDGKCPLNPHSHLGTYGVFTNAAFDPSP
Procedure: as §1, §2

VEGF = biological target: T4, VEGF (Homo sapiens, UniProt P15692); assay: Solution-based competitive BLI assay, VEGF; type: binding; details: competition with immobilized biotin-heparin (18 kDa), 25° C., read-out: dissociation constant (apparent Kd) to VEGF
T4 construct: purchased R&D Systems
T4 sequence (P15692 27-191 isoform P15692-4): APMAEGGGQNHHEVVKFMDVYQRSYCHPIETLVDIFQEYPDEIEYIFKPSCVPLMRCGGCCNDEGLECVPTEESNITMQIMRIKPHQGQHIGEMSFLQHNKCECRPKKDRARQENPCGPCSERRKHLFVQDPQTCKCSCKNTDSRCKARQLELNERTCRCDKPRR
Procedure: as §1, §2

FGF-1 = biological target: T5, FGF-1 (Homo sapiens, UniProt P05230); assay: Solution-based competitive BLI assay, FGF-1; type: binding; details: competition with immobilized biotin-heparin (18 kDa), 25° C., read-out: dissociation constant (apparent Kd) to FGF-1
T5 construct: purchased R&D Systems
T5 sequence (P05230 whole entry, species assumed): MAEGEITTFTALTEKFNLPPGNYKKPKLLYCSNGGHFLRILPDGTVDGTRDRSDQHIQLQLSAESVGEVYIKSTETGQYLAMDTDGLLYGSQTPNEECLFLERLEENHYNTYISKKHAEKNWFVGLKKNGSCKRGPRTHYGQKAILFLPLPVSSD
Procedure: as §1, §2

Row | Substance | antimetastatic effect, lung metastasis of 4T1 cells [1] | Kd (FGF-2) [nM] | Kd (platelet factor-4 (PF4)) [nM] | Kd (P-selectin) [nM] | Kd (VEGF) [nM] | Kd (FGF-1) [nM]
1 | Roneparstat | effect was similar |  |  |  |  | 
2 | heparin [reference compound] | reduced the size of the metastasized lung tumor by half | 0.15 ± 0.11 | 0.31 ± 0.028 | 125 ± 152 | 4.91 ± 1.55 | 4.6 ± 3.3
